According to patent US20130123319A1, “Medthod of Treating a systemic inflammatory disorder and damaged internal tissues” (priority 2011, published 2013):
Where two headings read alike, the source gives them in different places.

Key:
[1] = system: Myasthenia Gravis without Thymoma; assay: Case report: patient with Myasthenia Gravis given intravenous nutritional infusion; assay type: in vivo, human; details: day 5 of the hospitalization
Procedure: In 1990 I began to treat a patient with Myasthenia Gravis without Thymoma, an autoimmune disorder, which causes a decrease in the availability of Acetylcholine at the muscle endplate. Pyridostigmine, which increases the amount of Acetylcholine available at the endplate, and later Prednisone, was added for control of their myasthenia. The later acts by reducing the inflammatory response at the muscle endplate. In 1992 they underwent a bowel operation for correction of an enterorectal fistula and was unable to eat orally or gastrically to be fed. They were put on the standardized intravenous nutritional protocol in the hospital in which I worked, which included 3% Glycerin plus 3% Amino Acids, (see Table 1) at a rate of 100 ccs/hour. This was given for 6 days. There was no change in their Myasthenia Gravis. Twelve days later they were readmitted with abdominal pain and the same IV nutrition was administered. On day 5 of the hospitalization they developed a cholinergic crisis, which was relieved by Atropine. Pyridostigmine and Prednisone were discontinued. […] They were readmitted to the hospital 4 years later because of difficulty swallowing and again was given intravenous 3% Glycerin and 3% Amino Acids. […]

Behcet's Disease = assay: Case reports: patients with exacerbation of Behcet's Disease; assay type: in vivo, human
From the text: Behcet's Syndrome is a worldwide disorder that seems to be more severe and more common along the Silk Route and in Japan.
This happened back in the year 2000.

[2] = in vivo, cited from earlier work
bacteria = details: virus specimens; more potent when mixed with serum; cited from earlier work

CN1[C@@H]2CC[C@H]1C[C@@H](OC(=O)C(CO)c1ccccc1)C2 (some centres unmarked) [Atropine]
cholinergic crisis [1]: relieved

OCC(O)CO [Glycerin]
rate of improvement in autoimmune diseases, especially Behcet's Disease (Behcet's Disease; inventor's review of the cases): quick or rapid improvement | central nervous system involvement (Behcet's Disease; one patient with neuro-Behcet's disease): improved central nervous system involvement rapidly | toxicity [2]: low toxicity | toxicity ([2]; listed as Sterilized Glycerin): non-toxic | bacteria in the specimens (bacteria): reduced bacteria

C[C@]12C=CC(=O)C=C1CC[C@@H]1[C@@H]2C(=O)C[C@@]2(C)[C@H]1CC[C@]2(O)C(=O)CO [Prednisone, reference compound]
response of Behcet's exacerbation (Behcet's Disease; eleven patients, high dose): failed to respond | response of Behcet's exacerbations (Behcet's Disease; over 20 patients since 2000, high doses): usually responded
